Results published in the supplement of paper PMC8183993.
Counter-ions that a name gives are not always drawn.

Tests used:
Conditions in all cases: 24 h
U2OS [1] = assay: nuclei count in OPP assay relative to DMSO (% of DMSO); higher = more viable cells
Description: (§1)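 Validation screen in U2OS cells: hits tested at 1, 3 and 10 uM for 24 h in duplicate plates. Translation was read by OPP incorporation (1 h pulse) and HPG incorporation (30 min in methionine-free medium), quantified by high-throughput microscopy alongside nuclei counts. All values are normalised to DMSO (= 100).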

U2OS [2] = assay: nuclei count in HPG assay relative to DMSO (% of DMSO); higher = more viable cells
Description: as §1

U2OS [3] = assay: mean OPP incorporation (global translation) relative to DMSO (% of DMSO); higher = more protein synthesis
Description: as §1

U2OS [4] = assay: mean HPG incorporation (global translation) relative to DMSO (% of DMSO); higher = more protein synthesis
Description: as §1

Row | SMILES | nuclei count in OPP assay (U2OS [1]; 1 µM) | nuclei count in OPP assay (U2OS [1]; 3 µM) | nuclei count in OPP assay (U2OS [1]; 10 µM) | nuclei count in HPG assay (U2OS [2]; 1 µM) | nuclei count in HPG assay (U2OS [2]; 3 µM) | nuclei count in HPG assay (U2OS [2]; 10 µM) | mean OPP incorporation (U2OS [3]; 1 µM) | mean OPP incorporation (U2OS [3]; 3 µM) | mean OPP incorporation (U2OS [3]; 10 µM) | mean HPG incorporation (U2OS [4]; 1 µM) | mean HPG incorporation (U2OS [4]; 3 µM) | mean HPG incorporation (U2OS [4]; 10 µM)
1 | CC(C)n1nc(-c2ccc3oc(N)nc3c2)c2c(N)ncnc21 [INK 128 (MLN0128)] | 79.2 | 68.8 | 69.8 | 76 | 80.6 | 72.8 | 28.2 | 29.2 | 30 | 32.9 | 29.4 | 28.2
2 | Cc1ccc(NC(=O)c2ccc(CN3CCN(C)CC3)cc2)cc1Nc1nccc(-c2cccnc2)n1 [Imatinib (STI571)] | 97.6 | 97.7 | 95.9 | 102 | 97.7 | 92.4 | 113 | 122 | 131 | 91.5 | 111 | 121
3 | N#CC(c1ccnc(NCCc2cccnc2)n1)c1nc2ccccc2s1 (stereo not drawn) [JNK Inhibitor V] | 104 | 94.1 | 79.9 | 105 | 93.9 | 77 | 122 | 127 | 110 | 122 | 133 | 85.5
4 | O=[N+]([O-])c1ccccc1S(=O)(=O)NCC1CCC(CNCC2CCc3ccccc3C2)CC1 (stereo not drawn) [NTNCB hydrochloride] | 101 | 98.3 | 74.4 | 95.8 | 90.7 | 87.6 | 106 | 115 | 110 | 98 | 104 | 56.8
5 | Cn1cc(-c2ccc3ncc(Cc4ccc5ncccc5c4)n3n2)cn1 [NVP-BVU972] | 104 | 79.7 | 89.8 | 107 | 85.5 | 88.5 | 91 | 107 | 124 | 114 | 132 | 138
6 | Cc1cn(-c2cc(NC(=O)c3ccc(C)c(Nc4nccc(-c5cccnc5)n4)c3)cc(C(F)(F)F)c2)cn1 [Nilotinib (AMN-107)] | 96.6 | 94.2 | 80.2 | 101 | 91.3 | 98.5 | 112 | 120 | 116 | 95 | 93.5 | 92.5
7 | O=C(Nc1ccc(OC(F)(F)F)cc1)c1sccc1NCc1ccnc2ccccc12 [OSI-930] | 98 | 89.7 | 91.2 | 96.9 | 98.1 | 92 | 99.3 | 101 | 114 | 93.9 | 92.7 | 64.2
8 | Cc1cc(CS(=O)(=O)c2ccccc2)cc(OCc2ccc(CN3CCC[C@@H]3CO)cc2)c1 [PF-543] | 104 | 98.9 | 94.3 | 102 | 99.2 | 92.2 | 111 | 117 | 130 | 97.1 | 81.9 | 89.6
9 | COc1ccccc1S(=O)(=O)Nc1ccc2c(c1)CN(C)C(=O)N2 [PFI-1] | 99.5 | 106 | 106 | 103 | 101 | 101 | 83.4 | 56.2 | 45.9 | 95.7 | 93.2 | 87
10 | Nc1ccc(-c2cccc3c(=O)cc(N4CCOCC4)oc23)cc1 [PI 828] | 101 | 89.8 | 81.9 | 108 | 94.6 | 85.2 | 92.1 | 83.1 | 54.1 | 73.5 | 64.3 | 41.5
11 | CC[C@@H]1/C=C(\C)C[C@H](C)C[C@H](OC)[C@H]2O[C@@](O)(C(=O)C(=O)N3CCCC[C@H]3C(=O)O[C@H](/C(C)=C/[C@@H]3CC[C@H](Cl)[C@H](OC)C3)[C@H](C)[C@@H](O)CC1=O)[C@H](C)C[C@@H]2OC [Pimecrolimus] | 101 | 106 | 95.5 | 103 | 101 | 92.5 | 125 | 123 | 124 | 108 | 113 | 99.6
12 | CCOc1cc(C(=O)Nc2ccc(Cl)c(-c3nc4ccccc4[nH]3)c2)cc(OCC)c1OCC [SANT-2] | 102 | 109 | 104 | 102 | 105 | 97.5 | 117 | 114 | 121 | 97.5 | 92.7 | 74.1
13 | Oc1ccc(Nc2nc(-c3ccc(Cl)cc3)cs2)cc1 [SKI II] | 88.5 | 85.3 | 75.2 | 99 | 88.9 | 72.6 | 91 | 83.5 | 69.5 | 92.6 | 79.3 | 55.7
14 | COc1nc(-c2ccc3c(c2)OCO3)n(-c2ccc(NC(=O)CSc3ccccc3)cc2)n1 [SecinH3] | 105 | 105 | 98.9 | 107 | 96.8 | 100 | 106 | 117 | 121 | 107 | 100 | 93.3
